Results: patent US9422306B2, “Artemisinin compounds and synthesis and use thereof” (University of Washington Through Its Center for …, priority 2012, dated 2016)
Like-named read-outs stand apart in the source and are kept apart here.

Key:
MCF-10A = MCF-10A IC50; type: cell-based
BT474 cells = experiment: MTT cell viability assay, BT474 breast cancer cells; type: cell-based; settings: for IC50: read-out: BT474 IC50; for Selectivity BT474: values match MCF-10A IC50 / BT474 IC50, formula not given
Experimental: (§1) In vitro toxicity of the compounds described herein were tested on two breast cancer cell lines, MDA-MB-231 and BT-474. These cell lines represent triple negative and HER2-positive breast cancers, respectively. BT474 cell and MDA-MB-231 cells were maintained in DMEM media supplemented with 10% v/v FBS. On reaching confluency (1×10^6 cells/mL in a 25 mL flask), 1×10^6 cells were seeded in 25 mL of fresh supplemented media. The cells were incubated under humidified air containing 5% CO2 at 37° C. Cell density was kept below 1×10^6 cells/mL to ensure exponential growth and to avoid differentiation. Cells were only used between passages 5 and 15 to prevent cell differentiation.
(§2) A standard MTT assay was used to determine the cell viability at 48 hr after an artemisinin derivative was added to the culture medium. Cell viability was above 95% for all experiments. The viable cell count was based on trypan blue exclusion from the cells and was performed in a hemocytometer using a light microscope. To 50 μL of cells was added 20 μL of trypan blue 0.4% solution and 30 μL D-Hanks solution was counted. During experiments cells were exposed to drug stock solutions which were made up in 100% DMSO and the final solvent concentration was 1% v/v in each incubation. Each concentration in every experiment was carried out in triplicate.
(§3) BT474 (2000 cells/100 μL) or MDA-MB-231 cells (7500 cells/100 μL) were seeded on a 96 well plate respectively, and incubated for 24 hr at 37° C. The medium was removed, and replaced it with 200 μL of the complete medium containing artemisinin derivatives. The cells were incubated for 48 hr at 37° C., the medium was removed, and replaced it with 100 μL of fresh complete medium. 10 μL of […] MTT stock solution (D-Hanks) was added to each well. After incubating for 3 hr at 37° C., formazan crystals were solubilized in 50 μL of DMSO and absorbance was measured at 570 nm with BIO-RAD model 680 microplate reader. All data were analyzed using Microsoft Excel. IC50 values were determined with Graphpad Prism 5.

MDA-MB-231 cells = experiment: MTT cell viability assay, MDA-MB-231 breast cancer cells; type: cell-based; settings: for IC50: read-out: MDA MB 231 IC50; for Selectivity MDA MB 231: values match MCF-10A IC50 / MDA MB 231 IC50, formula not given
Experimental: as §1, §2, §3

NCI 60 cell lines = settings: panel of NCI 60 cell lines; cited from earlier work
[1] = system: PCa cell lines DU 145, PC-3, C4-2, and LNCaP; experiment: Cytotoxicity against a panel of four PCa cell lines; type: cell-based; settings: DU 145, PC-3, C4-2, LNCaP
Experimental: The cytotoxicity of artemisinin dimers, dimer-2Py, was evaluated against a panel of four PCa cell lines, DU 145, PC-3, C4-2, and LNCaP.

[2] = Homo sapiens, BT-474, MTT, 48 hr incubation
[3] = Homo sapiens, MDA-MB-231, MTT, 48 hr incubation

Row | IC50 (BT474 cells; [2]) [µM] | IC50 (MDA-MB-231 cells; [3]) [µM] | SMILES | IC50 (MCF-10A; Homo sapiens, MCF-10A) [µM] | Selectivity BT474 (BT474 cells) | Selectivity MDA MB 231 (MDA-MB-231 cells) | IC50 (BT474 cells; Homo sapiens, BT-474, 48 h) [µM] | IC50 (MDA-MB-231 cells; Homo sapiens, MDA-MB-231, 48 h) [µM] | times less potent than artemisinin dimer succinate (MDA-MB-231 cells; MDA-MB-231) [times] | IC50 (MCF-10A) [µM] | IC50 (BT474 cells; MTT, 48 hr incubation) [µM] | times more potent than artemisinin monomers such as artesunate (NCI 60 cell lines) | IC50 (MDA-MB-231 cells; MTT, 48 hr incubation) [µM] | cytotoxicity [1]
1 | 1.7 | 26 | COC(=O)CNC(=O)C(CC[C@H]1O[C@@H]2OC3(C)CCC4[C@H](C)CCC([C@H]1C)[C@]42OO3)N(CCC[C@H]1O[C@@H]2OC3(C)CCC4[C@H](C)CCC([C@H]1C)[C@]42OO3)C(=O)c1cnccn1 (stereo partly shown) [Compound 6e] | 25 | 15 | 0.96 | – | – | – | – | – | – | – | –
2 | 0.79 | 11 | COC(=O)CNC(=O)C(CC[C@H]1O[C@@H]2OC3(C)CCC4[C@H](C)CCC([C@H]1C)[C@]42OO3)N(CCC[C@H]1O[C@@H]2OC3(C)CCC4[C@H](C)CCC([C@H]1C)[C@]42OO3)C(=O)c1ccccc1 (stereo partly shown) [Compound 6b] | 5 | 6.3 | 0.45 | – | – | – | – | – | – | – | –
3 | 0.88 | 12 | COC(=O)CNC(=O)C(CC[C@H]1O[C@@H]2OC3(C)CCC4[C@H](C)CCC([C@H]1C)[C@]42OO3)N(CCC[C@H]1O[C@@H]2OC3(C)CCC4[C@H](C)CCC([C@H]1C)[C@]42OO3)C(=O)c1ccc(N(C)C)cc1 (stereo partly shown) [Compound 6d] | 15 | 17 | 1.3 | – | – | – | – | – | – | – | –
4 | 6.6 | 19 | COC(=O)CNC(=O)C(CC[C@H]1O[C@@H]2OC3(C)CCC4[C@H](C)CCC([C@H]1C)[C@]42OO3)N(CCC[C@H]1O[C@@H]2OC3(C)CCC4[C@H](C)CCC([C@H]1C)[C@]42OO3)C(=O)C(F)(F)F (stereo partly shown) [Compound 6a] | 4.6 | 0.70 | 0.24 | – | – | – | – | – | – | – | –

The remaining lines, values behind:

Row | SMILES | IC50 (BT474 cells; [2]) [µM] | IC50 (MDA-MB-231 cells; [3]) [µM] | IC50 (MCF-10A; Homo sapiens, MCF-10A) [µM] | Selectivity BT474 (BT474 cells) | Selectivity MDA MB 231 (MDA-MB-231 cells) | IC50 (BT474 cells; Homo sapiens, BT-474, 48 h) [µM] | IC50 (MDA-MB-231 cells; Homo sapiens, MDA-MB-231, 48 h) [µM] | times less potent than artemisinin dimer succinate (MDA-MB-231 cells; MDA-MB-231) [times] | IC50 (MCF-10A) [µM] | IC50 (BT474 cells; MTT, 48 hr incubation) [µM] | times more potent than artemisinin monomers such as artesunate (NCI 60 cell lines) | IC50 (MDA-MB-231 cells; MTT, 48 hr incubation) [µM] | cytotoxicity [1]
5 | COC(=O)CNC(=O)C(CC[C@H]1O[C@@H]2OC3(C)CCC4[C@H](C)CCC([C@H]1C)[C@]42OO3)N(CCC[C@H]1O[C@@H]2OC3(C)CCC4[C@H](C)CCC([C@H]1C)[C@]42OO3)C(=O)c1cccc(OC)c1OC (stereo partly shown) [Compound 6c] | 5.8 | 12 | 5.7 | 0.98 | 0.48 | – | – | – | – | – | – | – | –
6 | C[C@H]1[C@H](OC(=O)CCC(=O)O)O[C@@H]2O[C@@]3(C)CC[C@H]4[C@H](C)CC[C@@H]1[C@@]24OO3 [Artesunate, reference compound] | – | – | 21 | 2.7 | 0.46 | 7.8 | 46 | – | – | – | – | – | –
7 | COC(=O)CNC(=O)C(CC[C@H]1O[C@@H]2OC3(C)CCC4[C@H](C)CCC([C@H]1C)[C@]42OO3)N(CCC[C@H]1O[C@@H]2OC3(C)CCC4[C@H](C)CCC([C@H]1C)[C@]42OO3)c1ccc([N+](=O)[O-])cc1 (stereo partly shown) [Compound 6f] | 0.096 | 1.2 | 47 | 490 | 39 | – | – | 5 | – | – | – | – | –
8 | C[C@H]1[C@@H](CC(COC(=O)CCC(=O)O)C[C@H]2O[C@@H]3O[C@@]4(C)CC[C@H]5[C@H](C)CC[C@@H]([C@H]2C)[C@@]35OO4)O[C@@H]2O[C@@]3(C)CC[C@H]4[C@H](C)CC[C@@H]1[C@@]24OO3 (stereo partly shown) [Artemisinin dimer succinate, reference compound] | – | – | – | 210 | 88 | – | – | – | 21 | 0.1 | up to 500 times | 0.24 | –
9 | C[C@H]1[C@@H](O)O[C@@H]2O[C@@]3(C)CC[C@H]4[C@H](C)CC[C@@H]1[C@@]24OO3 [dihydroartemisinin] | – | – | – | – | – | – | – | – | – | – | – | – | negligible activity
10 | COC(=O)CNC(=O)C(CC[C@H]1O[C@@H]2OC3(C)CCC4[C@H](C)CCC([C@H]1C)[C@]42OO3)N(C(=O)c1ccccc1)C(C)C (stereo partly shown) [Compound 7] | > 100 | > 100 | > 100 | – | – | – | – | – | – | – | – | – | –
